According to US10549237B2, “Regenerable draw solute for osmotically driven processes” (NANYANG TECHNOLOGICAL UNIVERSITY, priority 2015, dated 2020):

How the values were obtained:
[1] = Residual Na2HPO4 concentration after acetone extractive crystallization of the supernatant (Example 2); format: physicochemical; details: acetone added to 10 wt % supernatant; lowest value, depends on amount of solvent
Protocol: […]. There is an instantaneous phase separation resulting in precipitation of solid crystal hydrates upon acetone addition. The mixture was allowed to settle for 1 hour before the solid crystals are removed. […] The Na2HPO4 concentration in water/acetone mixtures were then calculated accordingly. All the measurements were repeated for three times.

[2] = Water flux during forward osmosis in a cross-flow setup (Example 3, FIG. 2); details: 40 wt % draw solution
Protocol: Water flux during FO was measured in a cross-flow setup by monitoring the feed solution weight decrease with time. The method is adapted from a reported standard procedure. The initial weight of feed solution and draw solution was 500 g and 200 g, respectively. The effective membrane area was 58.5 cm^2. The feed and draw solutions flew in co-current in order to reduce the tension stress on membrane. The flow rate was 400 ml/min and plastic spacers were used in both feed and draw sides to reduce concentration polarization. During the tests, the temperature in draw solution and feed solution were monitored to be 50±1° C. and 46±2° C. respectively. The concentrations of feed solution and draw solution were kept virtually constant during the measurement. Water flux measurements were conducted in both FO mode (selective membrane layer facing towards feed solution) and PRO mode (selective layer facing towards draw solution). The water flux was calculated by: Flux=Δm/(A*t) (1)
Where Δm is the value of feed solution weight decrease (kg), t is the corresponding measurement time (h) and A is the membrane area in square meters. Therefore, the flux is in unit of liter per square meter per hour (LMH) if the density of water is assumed to be 1 kg/L.

- residual Na2HPO4 concentration after extractive crystallization [1]: 0.28 wt %
- water flux ([2]; feed 3.5 wt % NaCl (artificial seawater), FO mode, draw 50±1° C., feed 46±2° C.): 8 LMH
- water flux ([2]; feed 3.5 wt % NaCl (artificial seawater), PRO mode, draw 50±1° C., feed 46±2° C.): 19 LMH
- water flux ([2]; feed 17 wt % NaCl): about 1.0 LMH
Substance: Disodium phosphate
